Experimental data taken from patent publication US11040031B2, “Pyrazole derivatives as MALT1 inhibitors” (Janssen Pharmaceutica NV, priority 2018, dated 2021).

Molecular target: T1, full-length MALT1 protein (Strep-MALT1(1-824)-His) (Homo sapiens, UniProt Q9UDY8)
T1 sequence (Q9UDY8 1-824): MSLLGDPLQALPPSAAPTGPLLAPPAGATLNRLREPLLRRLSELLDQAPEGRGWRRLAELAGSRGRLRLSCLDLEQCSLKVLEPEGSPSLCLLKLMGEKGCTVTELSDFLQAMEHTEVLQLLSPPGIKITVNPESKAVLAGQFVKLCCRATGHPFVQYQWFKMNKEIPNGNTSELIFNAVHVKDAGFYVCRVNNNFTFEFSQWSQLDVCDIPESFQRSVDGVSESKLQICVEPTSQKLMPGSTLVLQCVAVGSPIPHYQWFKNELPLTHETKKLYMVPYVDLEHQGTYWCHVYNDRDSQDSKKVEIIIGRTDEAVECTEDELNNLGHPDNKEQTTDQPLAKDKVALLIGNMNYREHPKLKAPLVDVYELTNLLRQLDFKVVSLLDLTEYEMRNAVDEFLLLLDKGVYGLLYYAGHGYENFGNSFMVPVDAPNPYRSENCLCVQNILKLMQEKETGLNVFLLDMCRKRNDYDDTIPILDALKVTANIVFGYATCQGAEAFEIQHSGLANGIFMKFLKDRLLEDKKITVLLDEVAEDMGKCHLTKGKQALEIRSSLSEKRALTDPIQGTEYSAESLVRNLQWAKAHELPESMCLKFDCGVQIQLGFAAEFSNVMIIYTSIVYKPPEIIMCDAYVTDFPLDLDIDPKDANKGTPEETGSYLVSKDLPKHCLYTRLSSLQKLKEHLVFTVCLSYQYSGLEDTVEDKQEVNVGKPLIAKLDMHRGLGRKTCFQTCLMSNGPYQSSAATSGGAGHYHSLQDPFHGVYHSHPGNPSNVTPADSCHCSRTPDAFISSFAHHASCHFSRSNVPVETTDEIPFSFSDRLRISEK
Experiment: biochemical
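Note: fluorogenic LRSR-AMC substrate cleavage by MALT1, 50 min compound preincubation then 4 h reaction at RT, 11-point dilution from 30 µM, scaled between enzyme-free and untreated enzyme controls.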

SMILES	IC50 [µM]
Cc1ccc(F)cc1-n1ncc(C(=O)Nc2cnc(-n3nccn3)c(Cl)c2)c1C(F)(F)F [Cpd 96, N-(5-chloro-6-(2H-1,2,3-triazol-2-yl)pyridin-3-yl)-1-(5-fluoro-2-methylphenyl)-5-(trifluoromethyl)-1H-pyrazole-4-carboxamide]	0.316
Cc1cccc(-n2ncc(C(=O)Nc3cnc(-n4nccn4)c(Cl)c3)c2C(F)(F)F)n1 [Cpd 24, N-(5-chloro-6-(2H-1,2,3-triazol-2-yl)pyridin-3-yl)-1-(6-methylpyridin-2-yl)-5-(trifluoromethyl)-1H-pyrazole-4-carboxamide]	2.09
COc1nccc(-n2ncc(C(=O)Nc3cnc(-n4nccn4)c(C#N)c3)c2C(F)(F)F)c1C [Cpd 38, N-(5-cyano-6-(2H-1,2,3-triazol-2-yl)pyridin-3-yl)-1-(2-methoxy-3-methylpyridin-4-yl)-5-(trifluoromethyl)-1H-pyrazole-4-carboxamide]	0.324
N#Cc1cc(NC(=O)c2cnn(-c3ccc(F)c(F)c3)c2C(F)(F)F)cnc1-n1nccn1 [Cpd 104, N-(5-cyano-6-(2H-1,2,3-triazol-2-yl)pyridin-3-yl)-1-(3,4-difluorophenyl)-5-(trifluoromethyl)-1H-pyrazole-4-carboxamide]	0.245
N#Cc1ccc(-n2ncc(C(=O)Nc3cnc(-n4nccn4)c(Cl)c3)c2C(F)(F)F)c(Cl)c1 [Cpd 110, 1-(2-chloro-4-cyanophenyl)-N-(5-chloro-6-(2H-1,2,3-triazol-2-yl)pyridin-3-yl)-5-(trifluoromethyl)-1H-pyrazole-4-carboxamide]	0.123
Cc1c(F)ccc(-n2ncc(C(=O)Nc3cnc(-n4nccn4)c(Cl)c3)c2C(F)(F)F)c1Cl [Cpd 71, 1-(2-chloro-4-fluoro-3-methylphenyl)-N-(5-chloro-6-(2H-1,2,3-triazol-2-yl)pyridin-3-yl)-5-(trifluoromethyl)-1H-pyrazole-4-carboxamide]	0.832
Cc1cc(F)c(N)nc1-n1ncc(C(=O)Nc2cc(C#N)c(-n3nccn3)nc2C)c1C(F)(F)F [Cpd 186, 1-(6-amino-5-fluoro-3-methylpyridin-2-yl)-N-(5-cyano-2-methyl-6-(2H-1,2,3-triazol-2-yl)pyridin-3-yl)-5-(trifluoromethyl)-1H-pyrazole-4-carboxamide]	0.339
N#Cc1cc(-n2ncc(C(=O)Nc3cnc(-n4nccn4)c(Cl)c3)c2C(F)(F)F)ccc1F [Cpd 85, N-(5-chloro-6-(2H-1,2,3-triazol-2-yl)pyridin-3-yl)-1-(3-cyano-4-fluorophenyl)-5-(trifluoromethyl)-1H-pyrazole-4-carboxamide]	2.63
Cc1cccc(F)c1-n1ncc(C(=O)Nc2cnc(-n3nccn3)c(Cl)c2)c1C(F)(F)F [Cpd 92, N-(5-chloro-6-(2H-1,2,3-triazol-2-yl)pyridin-3-yl)-1-(2-fluoro-6-methylphenyl)-5-(trifluoromethyl)-1H-pyrazole-4-carboxamide]	0.501
CNc1cccc(-n2ncc(C(=O)Nc3cnc(-n4nccn4)c(C#N)c3)c2C(F)(F)F)n1 [Cpd 189, N-(5-cyano-6-(2H-1,2,3-triazol-2-yl)pyridin-3-yl)-1-(6-(methylamino)pyridin-2-yl)-5-(trifluoromethyl)-1H-pyrazole-4-carboxamide]	0.437
N#Cc1cnc(-n2ncc(C(=O)Nc3cnc(-n4nccn4)c(C#N)c3)c2C(F)(F)F)c(Cl)c1 [Cpd 31, 1-(3-chloro-5-cyanopyridin-2-yl)-N-(5-cyano-6-(2H-1,2,3-triazol-2-yl)pyridin-3-yl)-5-(trifluoromethyl)-1H-pyrazole-4-carboxamide]	6.61
O=C(Nc1cnc(-n2nccn2)c(Cl)c1)c1cnn(-c2cccc(-c3ccco3)n2)c1C(F)(F)F [Cpd 207, N-(5-chloro-6-(2H-1,2,3-triazol-2-yl)pyridin-3-yl)-1-(6-(furan-2-yl)pyridin-2-yl)-5-(trifluoromethyl)-1H-pyrazole-4-carboxamide]	5.62
